Tests used:
Sphaerotheca fisliginea = assay: Sphaerotheca test (cucumber)/protective; assay type: in vivo; conditions: young cucumber plants sprayed at 500 ppm, inoculated one day after treatment, evaluation 7 days after inoculation; 100% = no infection
Experimental: Solvent: 49 parts by weight of N,N-dimethylformamide
Emulsifier: 1 part by weight of alkylaryl polyglycol ether
To produce an appropriate active ingredient formulation, 1 part by weight of active ingredient is mixed with the specified amounts of solvent and emulsifier, and the concentrate is diluted with water to the desired concentration. To test for protective activity, young cucumber plants are sprayed with the formulation of active ingredient at the stated application rate. One day after the treatment, the plants are inoculated with a spore suspension of Sphaerotheca fisliginea. The plants are then placed in a greenhouse at 70% relative air humidity and a temperature of 23° C. Evaluation follows 7 days after the inoculation. 0% means an efficacy which corresponds to that of the control, whereas an efficacy of 100% means that no infection is observed. In this test, the following inventive compounds, at an active ingredient concentration of 500 ppm, show an efficacy of 70% or more.

[1] = logP by HPLC on reversed-phase columns (C 18), EEC Directive 79/831 Annex V.A8; assay type: physicochemical; conditions: reversed-phase HPLC column (C 18); method [a]: LC-MS, acidic range, pH 2.7, 0.1% aqueous formic acid and acetonitrile, linear gradient 10% to 95% acetonitrile
Experimental: The logP values were measured in accordance with EEC Directive 79/831 Annex V.A8 by HPLC (High Performance Liquid Chromatography) using reversed-phase columns (C 18) by the following methods: [a] The LC-MS determination in the acidic range is effected at pH 2.7 with 0.1% aqueous formic acid and acetonitile (contains 0.1% formic acid) as eluents; linear gradient from 10% acetonitrile to 95% acetonitrile.

Alternaria solani = assay: Alternaria test (tomato)/protective; assay type: in vivo; conditions: young tomato plants sprayed at 500 ppm, inoculated one day after treatment, evaluation 7 days after inoculation; 100% = no infection
Experimental: Solvent: 49 parts by weight of N,N-dimethylformamide Emulsifier: 1 part by weight of alkylaryl polyglycol ether To produce an appropriate active ingredient formulation, 1 part by weight of active ingredient is mixed with the specified amounts of solvent and emulsifier, and the concentrate is diluted with water to the desired concentration. To test for protective activity, young tomato plants are sprayed with the active ingredient formulation at the stated application rate. One day after the treatment, the plants are inoculated with a spore suspension of Alternaria solani and are then left at 100% relative humidity and 22° C. for 24 h. The plants are then left at 96% relative air humidity and a temperature of 20° C. Evaluation follows 7 days after the inoculation. 0% means an efficacy which corresponds to that of the control, whereas an efficacy of 100% means that no infection is observed. In this test, the following inventive compounds, at an active ingredient concentration of 500 ppm, show an efficacy of 70% or more.

SMILES: CC(C)(C)C(O)(COc1ccc(I)c(F)c1F)c1cncs1 (stereo not drawn) [Compound 1]
- Efficacy (%) (Sphaerotheca fisliginea): 94%
- chromatographic logP [1]: 3.76
- Efficacy (%) (Alternaria solani): 100%
